According to the NIST ThermoML archive (doi:10.1016/j.fluid.2018.09.026):
Several values for one entry are separate records, joined by “and”; a condition that tells them apart may be missing. Equal entries are not always repeated. ± gives the expanded uncertainty stated by the source.

Details: Liquid; for viscosity: Vibrating wire viscometry; for mass density: Vibrating tube method

OCCOCCOCCO [triethylene glycol]
Details | mass density | viscosity
343.08 K, 67540 kPa | – | 10.64 ± 0.47 mPa·s
343.08 K, 67870 kPa | – | 10.63 ± 0.49 mPa·s
343.15 K, 100 kPa | 1083.9 ± 4.3 kg/m3 | –
343.15 K, 640 kPa | 1084.2 ± 4.3 kg/m3 | –
343.15 K, 1120 kPa | 1084.4 ± 4.3 kg/m3 | –
343.15 K, 1600 kPa | 1084.7 ± 4.3 kg/m3 | –
343.15 K, 2110 kPa | 1084.9 ± 4.4 kg/m3 | –
343.15 K, 3040 kPa | 1085.5 ± 4.4 kg/m3 | –
343.15 K, 5040 kPa | 1086.6 ± 4.4 kg/m3 | –
343.15 K, 6960 kPa | 1087.5 ± 4.4 kg/m3 | –
343.15 K, 9920 kPa | 1089 ± 4.4 kg/m3 | –
343.15 K, 14810 kPa | 1091.6 ± 4.4 kg/m3 | –
343.15 K, 19680 kPa | 1093.9 ± 4.4 kg/m3 | –
343.15 K, 24620 kPa | 1096.4 ± 4.4 kg/m3 | –
343.15 K, 29580 kPa | 1098.7 ± 4.4 kg/m3 | –
343.15 K, 34460 kPa | 1101 ± 4.4 kg/m3 | –
343.15 K, 39370 kPa | 1103.3 ± 4.4 kg/m3 | –
343.15 K, 44240 kPa | 1105.4 ± 4.4 kg/m3 | –
343.15 K, 49160 kPa | 1107.6 ± 4.5 kg/m3 | –
343.15 K, 54020 kPa | 1109.7 ± 4.5 kg/m3 | –
343.15 K, 58940 kPa | 1111.7 ± 4.5 kg/m3 | –
343.15 K, 63890 kPa | 1113.8 ± 4.5 kg/m3 | –
343.15 K, 68680 kPa | 1115.7 ± 4.5 kg/m3 | –
353.15 K, 100 kPa | 1076 ± 4.3 kg/m3 | –
353.15 K, 650 kPa | 1076.3 ± 4.3 kg/m3 | –
353.15 K, 1100 kPa | 1076.5 ± 4.3 kg/m3 | –
353.15 K, 1550 kPa | 1076.7 ± 4.3 kg/m3 | –
353.15 K, 2100 kPa | 1077.1 ± 4.3 kg/m3 | –
353.15 K, 3050 kPa | 1077.6 ± 4.3 kg/m3 | –
353.15 K, 5040 kPa | 1078.6 ± 4.3 kg/m3 | –
353.15 K, 7010 kPa | 1079.8 ± 4.3 kg/m3 | –
353.15 K, 9960 kPa | 1081.3 ± 4.3 kg/m3 | –
353.15 K, 14810 kPa | 1084 ± 4.3 kg/m3 | –
353.15 K, 19780 kPa | 1086.5 ± 4.4 kg/m3 | –
353.15 K, 24610 kPa | 1089 ± 4.4 kg/m3 | –
353.15 K, 29560 kPa | 1091.9 ± 4.4 kg/m3 | –
353.15 K, 34450 kPa | 1093.8 ± 4.4 kg/m3 | –
353.15 K, 39370 kPa | 1096.1 ± 4.4 kg/m3 | –
353.15 K, 44270 kPa | 1098.4 ± 4.4 kg/m3 | –
353.15 K, 49200 kPa | 1100.6 ± 4.4 kg/m3 | –
353.15 K, 54090 kPa | 1102.8 ± 4.4 kg/m3 | –
353.15 K, 59010 kPa | 1104.9 ± 4.4 kg/m3 | –
353.15 K, 63820 kPa | 1107 ± 4.5 kg/m3 | –
353.15 K, 68800 kPa | 1109 ± 4.5 kg/m3 | –
362.88 K, 190 kPa | – | 4.247 ± 0.17 mPa·s [middle of 7 runs]
362.88 K, 1270 kPa | – | 4.27 ± 0.17 mPa·s [middle of 8 runs]
362.88 K, 1990 kPa | – | 4.308 ± 0.17 mPa·s and 4.283 ± 0.17 mPa·s and 4.311 ± 0.18 mPa·s
362.88 K, 2000 kPa | – | 4.292 ± 0.17 mPa·s [middle of 5 runs]
362.88 K, 4990 kPa | – | 4.388 ± 0.18 mPa·s [middle of 4 runs]
362.88 K, 5000 kPa | – | 4.396 ± 0.18 mPa·s and 4.394 ± 0.18 mPa·s and 4.386 ± 0.18 mPa·s
362.88 K, 10010 kPa | – | 4.54 ± 0.18 mPa·s and 4.522 ± 0.18 mPa·s and 4.512 ± 0.18 mPa·s
362.88 K, 10020 kPa | – | 4.524 ± 0.18 mPa·s [middle of 4 runs]
362.88 K, 19820 kPa | – | 4.812 ± 0.2 mPa·s
362.88 K, 19830 kPa | – | 4.792 ± 0.2 mPa·s and 4.786 ± 0.2 mPa·s and 4.794 ± 0.2 mPa·s
362.88 K, 19840 kPa | – | 4.789 ± 0.2 mPa·s
362.88 K, 29760 kPa | – | 5.092 ± 0.21 mPa·s
362.88 K, 29770 kPa | – | 5.089 ± 0.21 mPa·s
362.88 K, 29780 kPa | – | 5.088 ± 0.21 mPa·s
362.88 K, 29790 kPa | – | 5.109 ± 0.21 mPa·s
362.88 K, 39030 kPa | – | 5.381 ± 0.22 mPa·s
362.88 K, 39050 kPa | – | 5.39 ± 0.22 mPa·s
362.88 K, 39060 kPa | – | 5.382 ± 0.22 mPa·s
362.88 K, 39070 kPa | – | 5.395 ± 0.22 mPa·s
362.88 K, 39330 kPa | – | 5.395 ± 0.22 mPa·s
362.88 K, 50130 kPa | – | 5.747 ± 0.23 mPa·s
362.88 K, 50260 kPa | – | 5.754 ± 0.23 mPa·s
362.88 K, 50300 kPa | – | 5.756 ± 0.23 mPa·s
362.88 K, 50380 kPa | – | 5.739 ± 0.23 mPa·s
362.88 K, 50430 kPa | – | 5.763 ± 0.23 mPa·s
362.88 K, 67370 kPa | – | 6.356 ± 0.26 mPa·s
362.88 K, 67660 kPa | – | 6.331 ± 0.26 mPa·s
362.88 K, 67980 kPa | – | 6.382 ± 0.26 mPa·s
363.15 K, 100 kPa | 1068.1 ± 4.3 kg/m3 and 1068 ± 4.3 kg/m3 | –
363.15 K, 660 kPa | 1068.4 ± 4.3 kg/m3 | –
363.15 K, 1120 kPa | 1068.7 ± 4.3 kg/m3 | –
363.15 K, 1560 kPa | 1068.9 ± 4.3 kg/m3 | –
363.15 K, 2130 kPa | 1069.2 ± 4.3 kg/m3 | –
363.15 K, 3050 kPa | 1069.8 ± 4.3 kg/m3 | –
363.15 K, 5090 kPa | 1070.9 ± 4.3 kg/m3 | –
363.15 K, 6990 kPa | 1072 ± 4.3 kg/m3 | –
363.15 K, 9980 kPa | 1073.7 ± 4.3 kg/m3 | –
363.15 K, 14880 kPa | 1076.4 ± 4.3 kg/m3 | –
363.15 K, 19680 kPa | 1079 ± 4.3 kg/m3 | –
363.15 K, 24720 kPa | 1081.7 ± 4.3 kg/m3 | –
363.15 K, 29630 kPa | 1084.2 ± 4.4 kg/m3 | –
363.15 K, 34490 kPa | 1086.6 ± 4.4 kg/m3 | –
363.15 K, 39430 kPa | 1089 ± 4.4 kg/m3 | –
363.15 K, 44200 kPa | 1091.4 ± 4.4 kg/m3 | –
363.15 K, 49240 kPa | 1093.7 ± 4.4 kg/m3 | –
363.15 K, 54100 kPa | 1095.9 ± 4.4 kg/m3 | –
363.15 K, 59010 kPa | 1098.1 ± 4.4 kg/m3 | –
363.15 K, 63880 kPa | 1100.2 ± 4.4 kg/m3 | –
363.15 K, 68830 kPa | 1102.3 ± 4.4 kg/m3 | –
